Measured values from US11518764B2, “Substituted heteroaryls as inhibitors of the BCL6 BTB domain protein-protein interaction” (Ontario Institute for Cancer Research (OICR), priority 2018, dated 2022).
pKd: −log10 of the molar value.

Experiments:
[1] = test system: BCL6 reporter construct (3xBCL6-TK-Luc) in SuDHL4 cells; experiment: Cell-based luciferase assay; conditions: Homo sapiens, SU-DHL-4, 48 h, read-out: Luciferase-Assay EC50, uM), SuDHL4-3xBCL6-TK-Luc cells, two days, high dose 10 uM
In short: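 SuDHL4 cells stably carrying a 3×BCL6-site TK-promoter firefly luciferase reporter, seeded at 15,000 cells/well, were dosed over a 10-point range (top 10 uM) and grown two days at 37 °C, 5% CO2. Luminescence then read after adding neolite reagent at room temperature.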

[2] = test system: Karpas422 cells; experiment: Tumor cell growth inhibition assay; assay type: cell-based; conditions: Homo sapiens, KARPAS-422, 144 h, read-out: Tumor Growth Inhibition in Karpas-422 (IC50, uM), Karpas422 cells, six days, ATPlite
In short: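 Karpas422 cells (2,000/well) in Alpha-MEM with 10% FBS dosed across 10 concentrations (top 5 uM) and grown six days at 37° C., 5% CO2. Viability read as ATPlite luminescence.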

[3] = molecular target: BCL6 BTB domain (Homo sapiens (Human), UniProt P41182); experiment: Surface plasmon resonance (SPR) assay; assay type: binding; conditions: BCL6 BTB domain captured on SA chip, single cycle kinetics

SMILES	EC50 [1] [µM]	IC50 [2] [µM]	pKd [3]
Cn1cnc2c(c(-c3cc(F)c(O)c(C(N)=O)c3)cn2CC(=O)Nc2cc(N3CC4CC3CO4)ncc2Cl)c1=O (stereo not drawn) [Compound I-284]	0.628	0.75	7.63
CN1C2CCC1CN(c1cc(NC(=O)Cn3cc(-c4cc(C(N)=O)c(O)c(F)c4F)c4c(=O)n(C)cnc43)c(Cl)cn1)C2 [Compound I-285]	1.6	1.6	6.99
Cn1cnc2c(c(-c3cc(C(N)=O)c(O)c(F)c3F)cn2CC(=O)Nc2cc(N3CC4CC3CO4)ncc2Cl)c1=O (stereo not drawn) [Compound I-286]	1.96	1.54	7.08
CN1CC2CN(c3cc(NC(=O)Cn4cc(-c5cc(F)c(O)c(C(N)=O)c5)c5c(=O)n(C)cnc54)c(Cl)cn3)CC2C1 (stereo not drawn) [Compound I-287]	1.71	1.44	7.73
CN(C)c1cc(NC(=O)Cn2cc(-c3cc(F)c(O)c(C(N)=O)c3)c3c(=O)n(C)cnc32)c(Cl)cn1 [Compound I-288]	0.181	0.128	8.02
CN1CCCN(c2cc(NC(=O)Cn3cc(-c4cc(F)c(O)c(C(N)=O)c4)c4c(=O)n(C)cnc43)c(Cl)cn2)CC1 [Compound I-289]	1.18	0.652	7.80
COc1cc(NC(=O)Cn2cc(-c3cc(Cl)c(O)c(C(N)=O)c3)c3c(=O)n(C)c(O)nc32)c(Cl)cn1 [Compound I-290]	10	10	4.74
CN(C)c1cc(NC(=O)Cn2cc(-c3cc(Cl)c(O)c(C(N)=O)c3)c3c(=O)n(C)c(Cl)nc32)c(Cl)cn1 [Compound I-292]	1.66	0.575	7.09
CN(C)c1cc(NC(=O)Cn2cc(-c3cc(Cl)c(O)c(C(N)=O)c3)c3c(=O)[nH]c(Cl)nc32)c(Cl)cn1 [Compound I-293]	10	2.44	7.74
C[C@H]1COCCN1c1cc(NC(=O)Cn2cc(-c3cc(Cl)c(O)c(C(N)=O)c3)c3c(=O)[nH]c(Cl)nc32)c(Cl)cn1 [Compound I-294]	1.43	1.88	8.00
CC(C)N1CCN(c2cc(NC(=O)Cn3cc(-c4cc(F)c(O)c(C(N)=O)c4)c4c(=O)n(C)cnc43)c(Cl)cn2)[C@@H](C)C1 [Compound I-295]	0.14	0.106	8.11
C[C@H]1CN(C2CC2)CCN1c1cc(NC(=O)Cn2cc(-c3cc(Cl)c(O)c(C(N)=O)c3)c3c(=O)n(C)cnc32)c(Cl)cn1 [Compound I-296]	0.271	0.209	7.48
CN(C)c1cc(NC(=O)Cn2cc(-c3cc(C(N)=O)c(O)c(F)c3F)c3c(=O)n(C)cnc32)c(Cl)cn1 [Compound I-297]	0.395	0.846	7.24
Cn1cnc2c(c(-c3cc(C(N)=O)c(O)c(F)c3F)cn2CC(=O)Nc2cc(N3CCCC3)ncc2Cl)c1=O [Compound I-298]	0.399	0.883	7.49
Cn1cnc2c(c(-c3cc(C(N)=O)c(O)c(F)c3F)cn2CC(=O)Nc2cc(N3CC4COCC4C3)ncc2Cl)c1=O (stereo not drawn) [Compound I-299]	0.521	0.685	7.50
C[C@H]1CN(CC2CC2)CCN1c1cc(NC(=O)Cn2cc(-c3cc(Cl)c(O)c(C(N)=O)c3)c3c(=O)n(C)cnc32)c(Cl)cn1 [Compound I-301]	0.21	0.252	7.71
C[C@H]1COCCN1c1cc(NC(=O)Cn2cc(-c3cc(C(N)=O)c(O)c4c3OCO4)c3c(=O)n(C)cnc32)c(Cl)cn1 [Compound I-302]	0.0865	0.0528	8.30
C[C@H]1CN(CC2CC2)CCN1c1cc(NC(=O)Cn2cc(-c3cc(F)c(O)c(C(N)=O)c3)c3c(=O)n(C)cnc32)c(Cl)cn1 [Compound I-303]	0.0493	0.0323	8.20
C[C@H]1CN(C)CCN1c1cc(NC(=O)Cn2cc(-c3cc(C(N)=O)c(O)c(F)c3F)c3c(=O)n(CC#Cc4cnn(C)c4)cnc32)c(Cl)cn1 [Compound I-304]	0.228	0.314	8.18
Cc1nc2c(c(-c3cc(C(N)=O)c(O)c(F)c3F)cn2CC(=O)Nc2cc(N3CCN(C)CC3)ncc2Cl)c(=O)n1C [Compound I-305]	0.647	1.32	7.15
Cc1nc2c(c(-c3cc(Cl)c(O)c(C(N)=O)c3)cn2CC(=O)Nc2cc(N3CCN(C)CC3)ncc2Cl)c(=O)n1C [Compound I-306]	0.106	0.265	7.80
Cc1nc2c(c(-c3cc(C(N)=O)c(O)c4c3OCO4)cn2CC(=O)Nc2cc(N3CCOC[C@@H]3C)ncc2Cl)c(=O)n1C [Compound I-308]	0.0368	0.0161	8.69

SMILES	EC50 [1] [µM]	IC50 [2] [µM]	pKd [3]
Cc1nc2c(c(-c3cc(C(N)=O)c(O)c4c3OCCO4)cn2CC(=O)Nc2cc(N3CCOC[C@@H]3C)ncc2Cl)c(=O)n1C [Compound I-309]	1.02	2.55	6.84
C[C@H]1CN(Cc2ccccc2)CCN1c1cc(NC(=O)Cn2cc(-c3cc(C(N)=O)c(O)c(F)c3F)c3c(=O)n(C)cnc32)c(Cl)cn1 [Compound I-314]	0.901	6.7	6.93
Cc1nc2c(c(-c3cc(Cl)c(O)c(C(N)=O)c3)cn2CC(=O)Nc2cc(N3CCOC[C@@H]3C)nc(F)c2Cl)c(=O)n1C [Compound I-315]	0.114	0.147	7.85
Cc1nc2c(c(-c3cc(C(N)=O)c(O)c(F)c3F)cn2CC(=O)Nc2cc(N3CCOC[C@@H]3C)nc(F)c2Cl)c(=O)n1C [Compound I-316]	0.243	0.376	7.62
C[C@H]1COCCN1c1cc(NC(=O)Cn2cc(-c3cc(C(N)=O)c(O)c(F)c3F)c3c(=O)n(C)cnc32)c(Cl)c(F)n1 [Compound I-317]	0.633	0.467	7.26
Cn1cnc2c(c(-c3cc(C(N)=O)c(O)c(F)c3F)cn2CC(=O)Nc2cc(N3CCOCC3)nc(F)c2Cl)c1=O [Compound I-318]	0.228	0.319	7.29
C[C@H]1COCCN1c1cc(NC(=O)Cn2cc(-c3cc(F)c(O)c(C(N)=O)c3)c3c(=O)n(C)cnc32)c(Cl)c(F)n1 [Compound I-319]	0.104	0.0994	8.40
CN1CC2CCC(C1)N2c1cc(NC(=O)Cn2cc(-c3cc(C(N)=O)c(O)c(F)c3F)c3c(=O)n(C)cnc32)c(Cl)cn1 [Compound I-320]	1.15	0.979	7.32
C[C@H]1COCCN1c1cc(NC(=O)Cn2cc(-c3cc(C(N)=O)c(O)c(F)c3F)c3c(=O)n(CC#Cc4cnn(C)c4)cnc32)c(Cl)cn1 [Compound I-321]	0.405	0.437	8.04
C=C(C)c1nc2c(c(-c3cc(Cl)c(O)c(C(N)=O)c3)cn2CC(=O)Nc2cc(N3CCN(C)C[C@@H]3C)ncc2Cl)c(=O)n1C [Compound I-322]	3.09	1.19	7.47
COCn1c(Cl)nc2c(c(-c3cc(Cl)c(O)c(C(N)=O)c3)cn2CC(=O)Nc2cc(N3CCN(C)C[C@@H]3C)ncc2Cl)c1=O [Compound I-323]	1.09	0.914	7.00
CN1CC2CC1CN2c1cc(NC(=O)Cn2cc(-c3cc(C(N)=O)c(O)c(F)c3F)c3c(=O)n(C)cnc32)c(Cl)cn1 (stereo not drawn) [Compound I-324]	10	10	6.58
CN1CCOC2CN(c3cc(NC(=O)Cn4cc(-c5cc(C(N)=O)c(O)c(F)c5F)c5c(=O)n(C)cnc54)c(Cl)cn3)CC21 (stereo not drawn) [Compound I-325]	2	1.13	7.39
CN(C)C1CN(c2cc(NC(=O)Cn3cc(-c4cc(C(N)=O)c(O)c(F)c4F)c4c(=O)n(C)cnc43)c(Cl)cn2)C1 [Compound I-326]	2.35	2	7.19
CN1CCN(c2cc(NC(=O)Cn3cc(-c4cc(C(N)=O)c(O)c(F)c4F)c4c(=O)n(C)cnc43)c(Cl)cn2)C(C)(C)C1 [Compound I-327]	3	2.07	6.57
Cn1cnc2c(c(-c3cc(Cl)c(O)c(C(N)=O)c3)cn2CC(=O)Nc2nc(N3CCOCC3)c(F)cc2Cl)c1=O [Compound I-328]	3.76	2.66	6.62
CN1CCOC2CN(c3cc(NC(=O)Cn4cc(-c5cc(Cl)c(O)c(C(N)=O)c5)c5c(=O)n(C)cnc54)c(Cl)cn3)CC21 (stereo not drawn) [Compound I-329]	0.345	0.173	7.87
CN(C)CC1COCCN1c1cc(NC(=O)Cn2cc(-c3cc(Cl)c(O)c(C(N)=O)c3)c3c(=O)n(C)cnc32)c(Cl)cn1 (stereo not drawn) [Compound I-330]	0.89	0.56	7.40
CCN1CCN(c2cc(NC(=O)Cn3cc(-c4cc(Cl)c(O)c(C(N)=O)c4)c4c(=O)n(C)cnc43)c(Cl)cn2)[C@@H](C)C1 [Compound I-331]	0.254	0.176	7.75
Cc1cc(NC(=O)Cn2cc(-c3cc(C(N)=O)c(O)c(F)c3F)c3c(=O)n(C)cnc32)c(Cl)cn1 [Compound I-333]	2.42	4.21	6.84
Cc1cc(NC(=O)Cn2cc(-c3cc(Cl)c(O)c(C(N)=O)c3)c3c(=O)n(C)cnc32)c(Cl)cn1 [Compound I-334]	0.475	0.829	7.52
